The structures appear in SMILES notation. Structures can show the parent of a compound that is named as a salt. Active and inactive are the calls of the source. The rule behind the calls is not given here.

Assay type in all cases: cell-based
In test [1] the target is Glutamate NMDA receptor; Grin1/Grin2a (Rattus norvegicus) (UniProt P35439+Q00959). Kind of test: Antagonist activity at rat brain GluN1/GluN2A receptor expressed in Xenopus laevis oocytes assessed as inhibition of glutamate/glycine-induced channel current at 1 uM by two electrode voltage clamp method.
Test [2] deals with Glutamate NMDA receptor; Grin1/Grin2b (Rattus norvegicus) (UniProt P35439+Q00960). Kind of test: Antagonist activity at rat brain GluN1/GluN2B receptor expressed in Xenopus laevis oocytes assessed as inhibition of glutamate/glycine-induced channel current at 1 uM by two electrode voltage clamp method.
Test [3] deals with Glutamate NMDA receptor; Grin1/Grin2b (Rattus norvegicus, UniProt P35439+Q00960). Kind of test: Antagonist activity at rat brain GluN1/GluN2B receptor expressed in Xenopus laevis oocytes assessed as inhibition of glutamate/glycine-induced channel current by two electrode voltage clamp method.
For test [4], the target named is Glutamate NMDA receptor; Grin1/Grin2a (Rattus norvegicus, UniProt P35439+Q00959). Nature of the test: Antagonist activity at rat brain GluN1/GluN2A receptor expressed in Xenopus laevis oocytes assessed as inhibition of glutamate/glycine-induced channel current by two electrode voltage clamp method.

With `CC12CC3CC(C)(C1)CC(NCCCCN)(C3)C2`, the inhibition result in test [1] and in test [2] was “Active” each time.
For `CC12CC3CC(C)(C1)CC(NCCCCNCCCCN)(C3)C2`, the IC50 in test [3] came to 587 nM; in test [4] it was 656 nM.
Take `CC12CC3CC(C)(C1)CC(N)(C3)C2` [MEMANTINE HYDROCHLORIDE]: the IC50 in test [4] stood at 1380 nM.
As for `CC12CC3CC(C)(C1)CC(NCCCCNCCCCNC(=N)N)(C3)C2`, the IC50 was 433 nM in test [3] and 379 nM in test [4].
As for `CC12CC3CC(C)(C1)CC(NCCCCN=C(N)N)(C3)C2`, the inhibition result in test [1] and in test [2] was “Active” each time.
As to `CC12CC3CC(C)(C1)CC(NCCCCNCc1ccccc1)(C3)C2`, the inhibition entry in test [1] and in test [2] was “Active” throughout.
With `CC12CC3CC(C)(C1)CC(NCCCCCCCCCN)(C3)C2`, the inhibition result in test [1] and in test [2] was “Active” each time.

The values above are taken from ChEMBL document CHEMBL4184196, “Design, synthesis, and evaluation of polyamine-memantine hybrids as NMDA channel blockers” (Bioorg Med Chem, 2018).
